Measurements as given in ChEMBL document CHEMBL3885861, “Open TG-GATES”.

Species on record: Rattus norvegicus
Assay: Open TG-GATES - Regimen: Single
Type: toxicity, organism-based, Sprague-Dawley
Set-up: regimen Single, gender Male, age 6 weeks
Conditions: in vivo, iv, 10 mg/kg, route intravenous injection, dose level High; for KIDNEY_L / KIDNEY_R / KIDNEY_TOTAL: tissue Kidney; for LIVER: tissue Liver; for ALP / ALT / AST / CRE / DBIL / GLC / K / LDH / Na / RALB / TBIL / TC / TG / TP / gamma-GTP: tissue Plasma

COc1cccc2c1C(=O)c1c(O)c3c(c(O)c1C2=O)C[C@@](O)(C(=O)CO)C[C@@H]3O[C@H]1C[C@H](N)[C@H](O)[C@H](C)O1 [DOXORUBICIN]
Eos (3 h, tissue Blood): 0.6% | Fbg (3 h, tissue Blood): 275.8 mg/dL | Ht (3 h, tissue Blood): 37.5% | Lym (3 h, tissue Blood): 60.4% | MCH (3 h, tissue Blood): 21.8 pg | MCHC (3 h, tissue Blood): 34.9% | MCV (3 h, tissue Blood): 62.3 fL | Mono (3 h, tissue Blood): 8.8% | Neu (3 h, tissue Blood): 27.4% | PT (3 h, tissue Blood): 16.5 s | Plat (3 h, tissue Blood): 121.7 x10_4/uL | RBC (3 h, tissue Blood): 603 x10_4/ul | Ret (3 h, tissue Blood): 6.2% | KIDNEY_L (3 h): 0.9 g | KIDNEY_R (3 h): 0.9 g | KIDNEY_TOTAL (3 h): 1.9 g | LIVER (3 h): 9.3 g | ALP (3 h): 1462.4 IU/L | ALT (3 h): 43 IU/L | AST (3 h): 86.6 IU/L | CRE (3 h): 0.1 mg/dL | DBIL (3 h): 0 mg/dL | GLC (3 h): 171.4 mg/dL | K (3 h): 4.6 meq/L | LDH (3 h): 187.2 IU/L | Na (3 h): 141.4 meq/L | RALB (3 h): 2.9 g/dL | TBIL (3 h): 0.008 mg/dL | TC (3 h): 75.4 mg/dL | TG (3 h): 140 mg/dL | TP (3 h): 5.1 g/dL | gamma-GTP (3 h): 1.6 IU/L | TERMINAL_BW (6 h): 205.6 g | Bas (6 h, tissue Blood): 0% | Eos (6 h, tissue Blood): 0.2% | Fbg (6 h, tissue Blood): 275.8 mg/dL | Ht (6 h, tissue Blood): 38% | Lym (6 h, tissue Blood): 64% | MCH (6 h, tissue Blood): 21.6 pg | MCHC (6 h, tissue Blood): 34% | MCV (6 h, tissue Blood): 63.4 fL | Mono (6 h, tissue Blood): 6.4% | Neu (6 h, tissue Blood): 26.4% | PT (6 h, tissue Blood): 16.2 s | Plat (6 h, tissue Blood): 118.6 x10_4/uL | RBC (6 h, tissue Blood): 599 x10_4/ul | Ret (6 h, tissue Blood): 6.9% | KIDNEY_L (6 h): 0.9 g | KIDNEY_R (6 h): 0.9 g | KIDNEY_TOTAL (6 h): 1.8 g | LIVER (6 h): 8.7 g | ALP (6 h): 1468.4 IU/L | AST (6 h): 86.4 IU/L | CRE (6 h): 0.2 mg/dL | DBIL (6 h): 0 mg/dL | GLC (6 h): 190.8 mg/dL | K (6 h): 4 meq/L | LDH (6 h): 180 IU/L | Na (6 h): 141 meq/L | RALB (6 h): 2.9 g/dL | TBIL (6 h): 0.036 mg/dL | TC (6 h): 69.4 mg/dL | TG (6 h): 54.4 mg/dL | TP (6 h): 5.1 g/dL | gamma-GTP (6 h): 1.6 IU/L | TERMINAL_BW (9 h): 206.9 g | Bas (9 h, tissue Blood): 0% | Eos (9 h, tissue Blood): 0.4% | Fbg (9 h, tissue Blood): 279.2 mg/dL | Hb (9 h, tissue Blood): 13 g/dL | Ht (9 h, tissue Blood): 38.2% | Lym (9 h, tissue Blood): 56.2% | MCH (9 h, tissue Blood): 21.3 pg | MCHC (9 h, tissue Blood): 34.1% | MCV (9 h, tissue Blood): 62.5 fL | Mono (9 h, tissue Blood): 5.6% | Neu (9 h, tissue Blood): 35.4% | PT (9 h, tissue Blood): 15.9 s | Plat (9 h, tissue Blood): 118.9 x10_4/uL | RBC (9 h, tissue Blood): 611.6 x10_4/ul | Ret (9 h, tissue Blood): 6.1% | KIDNEY_L (9 h): 0.9 g | KIDNEY_R (9 h): 0.9 g | KIDNEY_TOTAL (9 h): 1.9 g | LIVER (9 h): 8.2 g | ALP (9 h): 1273.6 IU/L | AST (9 h): 84.2 IU/L | CRE (9 h): 0.1 mg/dL | DBIL (9 h): 0.002 mg/dL | GLC (9 h): 186.2 mg/dL | K (9 h): 4.1 meq/L | Na (9 h): 139.6 meq/L | RALB (9 h): 3 g/dL | TBIL (9 h): 0.036 mg/dL | TC (9 h): 68.4 mg/dL | TG (9 h): 56.8 mg/dL | TP (9 h): 5.2 g/dL | gamma-GTP (9 h): 1.2 IU/L | TERMINAL_BW (24 h): 206.3 g | Bas (24 h, tissue Blood): 0% | Eos (24 h, tissue Blood): 0.8% | Fbg (24 h, tissue Blood): 323 mg/dL | Ht (24 h, tissue Blood): 37.9% | Lym (24 h, tissue Blood): 74.2% | MCH (24 h, tissue Blood): 22.1 pg | MCHC (24 h, tissue Blood): 35.9% | MCV (24 h, tissue Blood): 61.6 fL | Mono (24 h, tissue Blood): 3% | Neu (24 h, tissue Blood): 20.8% | PT (24 h, tissue Blood): 15.9 s | Plat (24 h, tissue Blood): 131.1 x10_4/uL | RBC (24 h, tissue Blood): 615.6 x10_4/ul | Ret (24 h, tissue Blood): 3.2% | KIDNEY_L (24 h): 0.9 g | KIDNEY_R (24 h): 0.9 g | KIDNEY_TOTAL (24 h): 1.8 g | LIVER (24 h): 9.1 g | ALP (24 h): 1298.4 IU/L | ALT (24 h): 28 IU/L | CRE (24 h): 0.2 mg/dL | DBIL (24 h): 0 mg/dL | GLC (24 h): 208.8 mg/dL | K (24 h): 4.9 meq/L | LDH (24 h): 129.2 IU/L | Na (24 h): 141.2 meq/L | RALB (24 h): 2.9 g/dL | TBIL (24 h): 0.014 mg/dL | TC (24 h): 82.4 mg/dL | TG (24 h): 60 mg/dL | TP (24 h): 5.2 g/dL | gamma-GTP (24 h): 1.4 IU/L
